Reference: US12516046B2, “2-oxo-oxazolidine-5-carboxamides as NAV1.8 inhibitors” (Merck Sharp & Dohme LLC, priority 2020, dated 2026)

These compounds were tested against human Nav1.8 (Homo sapiens (Human), UniProt Q9Y5Y9) (assay: Nav1.8 Qube® Assay (automated 384-well patch-clamp)). Conditions: human Nav1.8 channels stably expressed in HEK 293 cells.
human Nav1.8, sequence (Q9Y5Y9 whole entry): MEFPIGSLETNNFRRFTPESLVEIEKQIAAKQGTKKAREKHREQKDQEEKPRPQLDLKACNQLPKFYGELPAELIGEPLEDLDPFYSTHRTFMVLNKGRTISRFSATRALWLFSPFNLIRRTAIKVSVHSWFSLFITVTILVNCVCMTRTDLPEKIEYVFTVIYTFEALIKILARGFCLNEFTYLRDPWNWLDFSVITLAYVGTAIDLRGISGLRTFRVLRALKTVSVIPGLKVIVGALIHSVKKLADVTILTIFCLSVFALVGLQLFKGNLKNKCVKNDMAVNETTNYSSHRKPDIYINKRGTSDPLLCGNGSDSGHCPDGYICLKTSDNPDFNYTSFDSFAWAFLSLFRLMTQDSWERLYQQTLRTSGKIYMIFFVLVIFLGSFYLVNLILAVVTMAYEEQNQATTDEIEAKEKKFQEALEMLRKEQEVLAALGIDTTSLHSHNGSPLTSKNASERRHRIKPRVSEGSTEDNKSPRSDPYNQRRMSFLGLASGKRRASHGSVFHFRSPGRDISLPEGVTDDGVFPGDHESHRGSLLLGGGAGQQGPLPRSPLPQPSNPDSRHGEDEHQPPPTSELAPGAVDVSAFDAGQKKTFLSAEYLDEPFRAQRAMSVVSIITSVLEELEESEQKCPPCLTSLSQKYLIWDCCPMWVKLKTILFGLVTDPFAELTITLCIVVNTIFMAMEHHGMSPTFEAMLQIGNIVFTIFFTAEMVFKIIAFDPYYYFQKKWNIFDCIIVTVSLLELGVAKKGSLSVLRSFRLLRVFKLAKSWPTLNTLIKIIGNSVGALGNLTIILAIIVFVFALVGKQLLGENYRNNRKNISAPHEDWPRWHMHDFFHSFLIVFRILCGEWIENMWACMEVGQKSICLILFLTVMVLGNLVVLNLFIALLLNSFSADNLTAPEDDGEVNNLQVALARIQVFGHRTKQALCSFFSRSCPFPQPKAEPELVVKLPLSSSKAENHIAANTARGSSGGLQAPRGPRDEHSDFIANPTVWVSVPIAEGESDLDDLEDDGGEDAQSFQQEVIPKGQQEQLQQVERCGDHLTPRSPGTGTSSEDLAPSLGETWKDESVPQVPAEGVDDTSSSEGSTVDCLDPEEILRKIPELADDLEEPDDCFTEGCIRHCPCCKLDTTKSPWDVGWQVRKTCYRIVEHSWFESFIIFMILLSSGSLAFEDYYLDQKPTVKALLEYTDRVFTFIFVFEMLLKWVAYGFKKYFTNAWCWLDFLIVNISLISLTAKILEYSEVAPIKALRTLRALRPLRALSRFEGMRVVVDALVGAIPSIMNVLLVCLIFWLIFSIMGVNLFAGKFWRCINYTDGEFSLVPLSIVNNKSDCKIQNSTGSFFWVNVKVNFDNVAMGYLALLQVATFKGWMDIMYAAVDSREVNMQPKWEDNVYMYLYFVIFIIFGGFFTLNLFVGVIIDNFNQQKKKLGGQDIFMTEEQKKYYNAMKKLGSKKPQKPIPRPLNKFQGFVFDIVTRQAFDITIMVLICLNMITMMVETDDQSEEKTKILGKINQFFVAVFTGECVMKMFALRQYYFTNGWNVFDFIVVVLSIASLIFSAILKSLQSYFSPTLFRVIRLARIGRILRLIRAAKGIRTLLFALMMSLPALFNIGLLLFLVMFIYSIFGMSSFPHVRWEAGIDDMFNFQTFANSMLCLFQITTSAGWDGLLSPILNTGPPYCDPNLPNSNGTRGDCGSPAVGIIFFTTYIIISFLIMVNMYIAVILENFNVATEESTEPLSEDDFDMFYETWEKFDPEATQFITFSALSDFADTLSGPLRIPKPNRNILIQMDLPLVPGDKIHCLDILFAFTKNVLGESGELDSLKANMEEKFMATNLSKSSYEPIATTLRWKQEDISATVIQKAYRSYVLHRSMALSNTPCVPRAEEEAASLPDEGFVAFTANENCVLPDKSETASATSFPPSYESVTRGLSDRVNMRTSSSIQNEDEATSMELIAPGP
Assay type: cell-based
Excerpt: Qube® Assay Experimental Procedure
Work on `O=C1NC[C@@H](C(=O)NC(c2ccc(OCC(F)(F)F)nc2)c2ccc(F)c(Cl)c2F)O1` (single isomer, unassigned) [Example 50B, (S)—N—((R or S)-(3-chloro-2,4-difluorophenyl)(6-(2,2,2-trifluoroethoxy)pyridin-3-yl)methyl)-2-oxooxazolidine-5-carboxamide] yielded an IC50 of 48 nM. For `O=C1NC[C@@H](C(=O)NC(c2ccc(F)c(Cl)c2)c2cccc(C(F)(F)F)n2)O1` (single isomer, unassigned) [Example 49B, (S)-N-((R or S)-(3-chloro-4-fluorophenyl)(6-(trifluoromethyl)pyridin-2-yl)methyl)-2-oxooxazolidine-5-carboxamide], the IC50 was 54 nM. In the case of `O=C1NC[C@@H](C(=O)NC(c2ccc(Cl)cc2)C23CCC(CC2)C3)O1` (single isomer, unassigned) [Example 3A, (S)-N-((R or S)-bicyclo[2.2.1]heptan-1-yl(4-chlorophenyl)methyl)-2-oxooxazolidine-5-carboxamide], the IC50 is reported as 133 nM. For `O=C1NC[C@@H](C(=O)NC(c2ccc(F)c(Cl)c2)c2ccc(F)c(Cl)c2)O1` [Example 10, (S)-N-(bis(3-chloro-4-fluorophenyl)methyl)-2-oxooxazolidine-5-carboxamide], the IC50 was 0.7 nM. `COc1cc(Cl)ccc1C(NC(=O)[C@@H]1CNC(=O)O1)c1ccc(F)cc1` (single isomer, unassigned) [Example 55A, (S)—N—((R or S)-(4-chloro-2-methoxyphenyl)(4-fluorophenyl)-methyl)-2-oxooxazolidine-5-carboxamide] was tested, and the IC50 was 19 nM. Compound `COc1ccc(C(NC(=O)[C@@H]2CNC(=O)O2)c2ccc(Cl)cc2)cn1` (single isomer, unassigned) [Example 22B, (S)-N-((R or S)-(4-chlorophenyl)(6-methoxypyridin-3-yl)methyl)-2-oxooxazolidine-5-carboxamide] has an IC50 of 314 nM. With `O=C1NC[C@@H](C(=O)NC(c2ccc(Cl)cc2)c2ccc(Cl)c(C(F)(F)F)n2)O1` (single isomer, unassigned) [Example 2A, (S)—N—((R or S)-(5-chloro-6-(trifluoromethyl)pyridin-2-yl)(4-chlorophenyl)methyl)-2-oxooxazolidine-5-carboxamide] the IC50 was 0.6 nM. In the case of `O=C1NC[C@@H](C(=O)NC(c2ccc(Cl)cc2)c2ccc(OC(F)F)nc2)O1` (stereo partly drawn) [Example 36, (5S)-N-((4-chlorophenyl)(6-(difluoromethoxy)pyridin-3-yl)methyl)-2-oxooxazolidine-5-carboxamide], the IC50 is reported as 69 nM. With `O=C1NC[C@@H](C(=O)NC(c2ccc(F)c(Cl)c2F)[C@@H]2CC[C@@H](C(F)(F)F)CO2)O1` (single isomer, unassigned) [Example 9D] the IC50 was 2420 nM. Compound `O=C1NC[C@@H](C(=O)NC(c2ccc(F)c(Cl)c2)C2CCN(CC(F)(F)F)C2)O1` (single isomer, unassigned) [Example 43B, (S)-N-((R or S)-(3-chloro-4-fluorophenyl)((R or S)-1-(2,2,2-trifluoroethyl)pyrrolidin-3-yl)methyl)-2-oxooxazolidine-5-carboxamide] has an IC50 of 807 nM. In the case of `O=C1NC[C@@H](C(=O)NC(CCc2ccc(Cl)cc2)c2ccc(F)c(Cl)c2F)O1` (single isomer, unassigned) [Example 65A, (S)—N—((R or S)-1-(3-chloro-2,4-difluorophenyl)-3-(4-chlorophenyl)propyl)-2-oxooxazolidine-5-carboxamide], the IC50 is reported as 94 nM. For `O=C1NC[C@@H](C(=O)NC(c2ccc(Cl)cc2)C2CCC(F)(F)C2)O1` (single isomer, unassigned) [Example 57C, (S)-N-((R or S)-(4-chlorophenyl)((R or S)-3,3-difluorocyclopentyl)methyl)-2-oxooxazolidine-5-carboxamide], the IC50 was 903 nM. `O=C1NC[C@@H](C(=O)NC(c2ccc(OC(F)F)cc2)c2ccc(F)c(Cl)c2)O1` (single isomer, unassigned) [Example 48B, (S)-N-((R or S)-(3-chloro-4-fluorophenyl)(4-(difluoromethoxy)phenyl)methyl)-2-oxooxazolidine-5-carboxamide] showed an IC50 of 6.8 nM. In the case of `O=C1NC[C@@H](C(=O)NC(c2ccc(Cl)cc2)C23CC(C(F)(F)F)(C2)C3)O1` (single isomer, unassigned) [Example 4A, (S)-N-((R or S)-(4-chlorophenyl)(3-(trifluoromethyl)bicyclo[1.1.1]pentan-1-yl)methyl)-2-oxooxazolidine-5-carboxamide], the IC50 is reported as 28 nM. For `O=C1NC[C@@H](C(=O)NC(c2ccc(F)c(Cl)c2)C2CCN(CC(F)(F)F)C2)O1` (single isomer, unassigned) [Example 43A, (S)-N-((R or S)-(3-chloro-4-fluorophenyl)((R or S)-1-(2,2,2-trifluoroethyl)pyrrolidin-3-yl)methyl)-2-oxooxazolidine-5-carboxamide], the IC50 was 1760 nM. Compound `O=C1NC[C@@H](C(=O)NC(c2ccc(Cl)cc2)c2ccc(F)c(C(F)F)n2)O1` (single isomer, unassigned) [Example 16A] has an IC50 of 239 nM. Compound `O=C1NC[C@@H](C(=O)NC(c2ccc(Cl)cc2)c2ccc(C(F)(F)F)cn2)O1` (single isomer, unassigned) [Example 37A, (S)-N-((R or S)-(4-chlorophenyl)(5-(trifluoromethyl)pyridin-2-yl)methyl)-2-oxooxazolidine-5-carboxamide] has an IC50 of 113 nM. `O=C1NC[C@@H](C(=O)NC(c2ccc(Cl)cc2)c2ccnc(C(F)(F)F)c2)O1` (stereo partly drawn) [Example 34] gave an IC50 of 94 nM. Compound `O=C1NC[C@@H](C(=O)NC(c2ccc(Cl)cc2)c2ccc(F)c(C(F)F)n2)O1` (single isomer, unassigned) [Example 16B] has an IC50 of 3.3 nM. In the case of `O=C1NC[C@@H](C(=O)NC(c2ccc(Cl)cc2)c2ccc(F)cn2)O1` (single isomer, unassigned) [Example 23B, (S)-N-((R or S)-(4-chlorophenyl)(5-fluoropyridin-2-yl)methyl)-2-oxooxazolidine-5-carboxamide], the IC50 is reported as 233 nM. `N#Cc1ccc(C(NC(=O)[C@@H]2CNC(=O)O2)c2cnc(C(F)(F)F)c(Cl)c2)cc1Cl` (single isomer, unassigned) [Example 54B, (S)-N-((R or S)-(3-chloro-4-cyano-phenyl)(5-chloro-6-(trifluoromethyl)pyridin-3-yl)methyl)-2-oxooxazolidine-5-carboxamide] gave an IC50 of 7.2 nM. `O=C1NC[C@@H](C(=O)NC(c2ccc(F)c(Cl)c2)c2ccn(C(F)F)n2)O1` (single isomer, unassigned) [Example 60A, (S)-N-((R or S)-(3-chloro-4-fluorophenyl)(1-(difluoromethyl)-1H-pyrazol-3-yl)methyl)-2-oxooxazolidine-5-carboxamide] gave an IC50 of 231 nM. In the case of `O=C1NC[C@@H](C(=O)NC(c2ccc(Cl)cc2)c2n[nH]c3ccccc23)O1` (single isomer, unassigned) [Example 15A, (S)-N-((R or S)-(4-chlorophenyl)(1H-indazol-3-yl)methyl)-2-oxooxazolidine-5-carboxamide], the IC50 is reported as 57 nM. With `O=C1NC[C@@H](C(=O)NC(c2ccc(Cl)cc2)c2coc(C(F)(F)F)n2)O1` (single isomer, unassigned) [Example 18A, (S)-N-((R or S)-(4-chlorophenyl)(2-(trifluoromethyl)oxazol-4-yl)methyl)-2-oxooxazolidine-5-carboxamide] the IC50 was 31 nM. In the case of `O=C1NC[C@@H](C(=O)NC(c2ccc(Cl)cc2)c2cccc(C3CC3)c2)O1` (single isomer, unassigned) [Example 33B, (S)-N-((R or S)-(4-chlorophenyl)(3-cyclopropylphenyl)methyl)-2-oxooxazolidine-5-carboxamide], the IC50 is reported as 9.4 nM. Compound `O=C1NC[C@@H](C(=O)NC(Cc2ccc(Cl)cc2)c2ccc(OC(F)(F)F)cc2)O1` (stereo partly drawn) [Example 68, (5S)-N-(2-(4-chlorophenyl)-1-(4-(trifluoromethoxy)phenyl)ethyl)-2-oxooxazolidine-5-carboxamide] has an IC50 of 246 nM. Compound `O=C1NC[C@@H](C(=O)NC(c2ccc(Cl)cc2)C23CC(C(F)(F)F)(C2)C3)O1` (single isomer, unassigned) [Example 4B, (S)-N-((R or S)-(4-chlorophenyl)(3-(trifluoromethyl)bicyclo[1.1.1]pentan-1-yl)methyl)-2-oxooxazolidine-5-carboxamide] has an IC50 of 312 nM. `Cn1nc(C(F)(F)F)cc1C(NC(=O)[C@@H]1CNC(=O)O1)c1ccc(F)c(Cl)c1` (single isomer, unassigned) [Example 61A, (S)-N-((R or S)-(3-chloro-4-fluorophenyl)(1-methyl-3-(trifluoromethyl)-1H-pyrazol-5-yl)methyl)-2-oxooxazolidine-5-carboxamide] gave an IC50 of 4.6 nM. `O=C1NC[C@@H](C(=O)NC(c2ccc(Cl)cc2)c2cccc(F)c2F)O1` (single isomer, unassigned) [Example 29A, (S)-N-((R or S)-(4-chlorophenyl)(2,3-difluorophenyl)methyl)-2-oxooxazolidine-5-carboxamide] was tested, and the IC50 was 14 nM. In the case of `O=C1NC[C@@H](C(=O)NC(c2ccc(Cl)cc2)c2ccnc(C(F)(F)F)n2)O1` (single isomer, unassigned) [Example 11A, (S)-N-((R or S)-(4-chlorophenyl)(2-(trifluoromethyl)pyrimidin-4-yl)methyl)-2-oxooxazolidine-5-carboxamide], the IC50 is reported as 23 nM. `O=C1NC[C@@H](C(=O)NC(c2ccc(F)c(Cl)c2)c2cc(C(F)(F)F)[nH]n2)O1` (single isomer, unassigned) [Example 5A, (S)—N—((R or S)-(3-chloro-4-fluorophenyl)(5-(trifluoromethyl)-1H-pyrazol-3-yl)methyl)-2-oxooxazolidine-5-carboxamide] showed an IC50 of 4.8 nM. Work on `N#Cc1cc(C(NC(=O)[C@@H]2CNC(=O)O2)c2ccc(F)c(Cl)c2)ccc1F` (single isomer, unassigned) [Example 69, (S)-N-((R or S)-(3-chloro-4-fluorophenyl)(3-cyano-4-fluorophenyl)methyl)-2-oxooxazolidine-5-carboxamide] yielded an IC50 of 16 nM. `O=C1NC[C@@H](C(=O)NC(c2ccc(Cl)cc2)c2ccc(OCC(F)(F)F)nn2)O1` (single isomer, unassigned) [Example 73A, (S)-N-((R or S)-(4-chlorophenyl)(6-(2,2,2-trifluoroethoxy)pyridazin-3-yl)methyl)-2-oxooxazolidine-5-carboxamide] was tested, and the IC50 was 964 nM.
